Results taken from the supplement of paper PMC10307832.

Experiments:
Assay in all cases: relative viability (nuclei count vs DMSO), 5 days (fraction); higher = more cells survive
NCI-H1975 = tested on: NCI-H1975
How it was run: (§1)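 One day after seeding in 1536-well plates, lung cancer cell lines were dosed by pin tool. Dosing was either single-drug or a fixed anchor-drug dose plus five library-drug doses (not always all listed) in √10 steps. After 5 days, nuclei were stained in one fix-and-stain step and counted on 4× images, and relative viability is the nuclei count of treated wells over that of vehicle wells, given as the median of duplicate plates.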

NCI-H647 = tested on: NCI-H647
How it was run: as §1

SW 1573 = tested on: SW 1573
How it was run: as §1

NCI-H1755 = tested on: NCI-H1755
How it was run: as §1

NCI-H2342 = tested on: NCI-H2342
How it was run: as §1

A-427 = tested on: A-427
How it was run: as §1

NCI-H2228 = tested on: NCI-H2228
How it was run: as §1

NCI-H522 = tested on: NCI-H522
How it was run: as §1

NCI-H1915 = tested on: NCI-H1915
How it was run: as §1

HCC-78 = tested on: HCC-78
How it was run: as §1

RERF-LC-KJ = tested on: RERF-LC-KJ
How it was run: as §1

HCC-15 = tested on: HCC-15
How it was run: as §1

HOP-62 = tested on: HOP-62
How it was run: as §1

SK-LU-1 = tested on: SK-LU-1
How it was run: as §1

NCI-H2347 = tested on: NCI-H2347
How it was run: as §1

LXF-289 = tested on: LXF-289
How it was run: as §1

PC-3 [JPC-3] = tested on: PC-3 [JPC-3]
How it was run: as §1

NCI-H2126 = tested on: NCI-H2126
How it was run: as §1

LC-2-ad = tested on: LC-2-ad
How it was run: as §1

NCI-H1734 = tested on: NCI-H1734
How it was run: as §1

NCI-H358 = tested on: NCI-H358
How it was run: as §1

COc1nc(C)cnc1NS(=O)(=O)c1cccnc1-c1ccc(-c2nnco2)cc1 [Zibotentan] + Cc1cc(Nc2cc(N3CCN(C)CC3)nc(Sc3ccc(NC(=O)C4CC4)cc3)n2)n[nH]1 [Tozasertib] (partner 0.1 µM)
relative viability (NCI-H1975; first compound 0.08 µM): 0.732
relative viability (NCI-H1975; first compound 0.253 µM): 0.695
relative viability (NCI-H1975; first compound 0.8 µM): 0.727
relative viability (NCI-H1975; first compound 2.53 µM): 0.831
relative viability (NCI-H647; first compound 0.08 µM): 0.307
relative viability (NCI-H647; first compound 0.253 µM): 0.183
relative viability (NCI-H647; first compound 0.8 µM): 0.298
relative viability (NCI-H647; first compound 2.53 µM): 0.262
relative viability (SW 1573; first compound 0.08 µM): 0.229
relative viability (SW 1573; first compound 0.8 µM): 0.257
relative viability (SW 1573; first compound 2.53 µM): 0.221
relative viability (NCI-H1755; first compound 0.08 µM): 0.475
relative viability (NCI-H1755; first compound 0.253 µM): 0.58
relative viability (NCI-H1755; first compound 0.8 µM): 0.602
relative viability (NCI-H1755; first compound 2.53 µM): 0.657
relative viability (NCI-H2342; first compound 0.08 µM): 0.496
relative viability (NCI-H2342; first compound 0.253 µM): 0.446
relative viability (NCI-H2342; first compound 0.8 µM): 0.493
relative viability (NCI-H2342; first compound 2.53 µM): 0.667
relative viability (A-427; first compound 0.08 µM): 0.232
relative viability (A-427; first compound 0.253 µM): 0.205
relative viability (A-427; first compound 0.8 µM): 0.25
relative viability (A-427; first compound 2.53 µM): 0.258
relative viability (NCI-H2228; first compound 0.08 µM): 0.266
relative viability (NCI-H2228; first compound 0.253 µM): 0.239
relative viability (NCI-H2228; first compound 0.8 µM): 0.212
relative viability (NCI-H2228; first compound 2.53 µM): 0.258
relative viability (NCI-H522; first compound 0.08 µM): 0.573
relative viability (NCI-H522; first compound 0.253 µM): 0.606
relative viability (NCI-H522; first compound 0.8 µM): 0.599
relative viability (NCI-H522; first compound 2.53 µM): 0.568
relative viability (NCI-H1915; first compound 0.08 µM): 0.453
relative viability (NCI-H1915; first compound 0.253 µM): 0.409
relative viability (NCI-H1915; first compound 0.8 µM): 0.428
relative viability (NCI-H1915; first compound 2.53 µM): 0.417
relative viability (HCC-78; first compound 0.08 µM): 0.526
relative viability (HCC-78; first compound 0.253 µM): 0.393
relative viability (HCC-78; first compound 0.8 µM): 0.306
relative viability (HCC-78; first compound 2.53 µM): 0.435
relative viability (RERF-LC-KJ; first compound 0.08 µM): 0.479
relative viability (RERF-LC-KJ; first compound 0.8 µM): 0.562
relative viability (RERF-LC-KJ; first compound 2.53 µM): 0.493
relative viability (HCC-15; first compound 0.08 µM): 0.481
relative viability (HCC-15; first compound 0.253 µM): 0.314
relative viability (HCC-15; first compound 0.8 µM): 0.373
relative viability (HCC-15; first compound 2.53 µM): 0.402
relative viability (HOP-62; first compound 0.08 µM): 0.333
relative viability (HOP-62; first compound 0.253 µM): 0.371
relative viability (HOP-62; first compound 0.8 µM): 0.428
relative viability (HOP-62; first compound 2.53 µM): 0.359
relative viability (SK-LU-1; first compound 0.08 µM): 0.327
relative viability (SK-LU-1; first compound 0.253 µM): 0.283
relative viability (SK-LU-1; first compound 0.8 µM): 0.336
relative viability (SK-LU-1; first compound 2.53 µM): 0.424
relative viability (NCI-H2347; first compound 0.253 µM): 0.49
relative viability (NCI-H2347; first compound 0.8 µM): 0.432
relative viability (NCI-H2347; first compound 2.53 µM): 0.537
relative viability (LXF-289; first compound 0.08 µM): 0.212
relative viability (LXF-289; first compound 0.253 µM): 0.161
relative viability (LXF-289; first compound 0.8 µM): 0.227
relative viability (LXF-289; first compound 2.53 µM): 0.225
relative viability (PC-3 [JPC-3]; first compound 0.08 µM): 0.869
relative viability (PC-3 [JPC-3]; first compound 0.253 µM): 0.903
relative viability (PC-3 [JPC-3]; first compound 0.8 µM): 0.853
relative viability (PC-3 [JPC-3]; first compound 2.53 µM): 0.878
relative viability (NCI-H2126; first compound 0.08 µM): 0.891
relative viability (NCI-H2126; first compound 0.8 µM): 0.813
relative viability (NCI-H2126; first compound 2.53 µM): 0.875
relative viability (LC-2-ad; first compound 0.08 µM): 0.436
relative viability (LC-2-ad; first compound 0.8 µM): 0.574
relative viability (LC-2-ad; first compound 2.53 µM): 0.452
relative viability (NCI-H1734; first compound 0.08 µM): 0.283
relative viability (NCI-H1734; first compound 0.253 µM): 0.253
relative viability (NCI-H1734; first compound 0.8 µM): 0.247
relative viability (NCI-H1734; first compound 2.53 µM): 0.326
relative viability (NCI-H358; first compound 0.08 µM): 0.0974
relative viability (NCI-H358; first compound 0.253 µM): 0.099
relative viability (NCI-H358; first compound 0.8 µM): 0.0954
relative viability (NCI-H358; first compound 2.53 µM): 0.0945

COc1nc(C)cnc1NS(=O)(=O)c1cccnc1-c1ccc(-c2nnco2)cc1 [Zibotentan] + O=C(CCCCCCC(=O)Nc1ccccc1)NO [Vorinostat] (partner 1 µM)
relative viability (NCI-H1975; first compound 0.08 µM): 0.758
relative viability (NCI-H1975; first compound 0.253 µM): 0.646
relative viability (NCI-H1975; first compound 0.8 µM): 0.632
relative viability (NCI-H1975; first compound 2.53 µM): 0.7
relative viability (NCI-H647; first compound 0.08 µM): 0.649
relative viability (NCI-H647; first compound 0.253 µM): 0.381
relative viability (NCI-H647; first compound 0.8 µM): 0.718
relative viability (NCI-H647; first compound 2.53 µM): 0.698
relative viability (SW 1573; first compound 0.08 µM): 0.76
relative viability (SW 1573; first compound 0.8 µM): 0.957
relative viability (SW 1573; first compound 2.53 µM): 0.885
relative viability (NCI-H1755; first compound 0.08 µM): 0.851
relative viability (NCI-H1755; first compound 0.253 µM): 0.742
relative viability (NCI-H1755; first compound 0.8 µM): 0.803
relative viability (NCI-H1755; first compound 2.53 µM): 0.818
relative viability (NCI-H2342; first compound 0.08 µM): 0.832
relative viability (NCI-H2342; first compound 0.253 µM): 0.778
relative viability (NCI-H2342; first compound 0.8 µM): 0.778
relative viability (NCI-H2342; first compound 2.53 µM): 0.678
relative viability (A-427; first compound 0.08 µM): 0.921
relative viability (A-427; first compound 0.253 µM): 0.848
relative viability (A-427; first compound 0.8 µM): 0.905
relative viability (A-427; first compound 2.53 µM): 0.928
relative viability (NCI-H2228; first compound 0.08 µM): 0.805
relative viability (NCI-H2228; first compound 0.253 µM): 0.719
relative viability (NCI-H2228; first compound 0.8 µM): 0.613
relative viability (NCI-H2228; first compound 2.53 µM): 0.92
relative viability (NCI-H522; first compound 0.08 µM): 0.928
relative viability (NCI-H522; first compound 0.253 µM): 0.887
relative viability (NCI-H522; first compound 0.8 µM): 1.03
relative viability (NCI-H522; first compound 2.53 µM): 0.946
relative viability (NCI-H1915; first compound 0.08 µM): 0.679
relative viability (NCI-H1915; first compound 0.253 µM): 0.53
relative viability (NCI-H1915; first compound 0.8 µM): 0.548
relative viability (NCI-H1915; first compound 2.53 µM): 0.572
relative viability (HCC-78; first compound 0.08 µM): 0.482
relative viability (HCC-78; first compound 0.253 µM): 0.347
relative viability (HCC-78; first compound 0.8 µM): 0.382
relative viability (HCC-78; first compound 2.53 µM): 0.48
relative viability (RERF-LC-KJ; first compound 0.08 µM): 0.847
relative viability (RERF-LC-KJ; first compound 0.253 µM): 0.541
relative viability (RERF-LC-KJ; first compound 0.8 µM): 0.74
relative viability (RERF-LC-KJ; first compound 2.53 µM): 0.679
relative viability (HCC-15; first compound 0.08 µM): 0.859
relative viability (HCC-15; first compound 0.253 µM): 0.863
relative viability (HCC-15; first compound 0.8 µM): 0.879
relative viability (HCC-15; first compound 2.53 µM): 0.84
relative viability (HOP-62; first compound 0.08 µM): 0.676
relative viability (HOP-62; first compound 0.253 µM): 0.57
relative viability (HOP-62; first compound 0.8 µM): 0.735
relative viability (HOP-62; first compound 2.53 µM): 0.623
relative viability (SK-LU-1; first compound 0.08 µM): 0.697
relative viability (SK-LU-1; first compound 0.253 µM): 0.726
relative viability (SK-LU-1; first compound 0.8 µM): 0.819
relative viability (SK-LU-1; first compound 2.53 µM): 0.83
relative viability (NCI-H2347; first compound 0.08 µM): 0.622
relative viability (NCI-H2347; first compound 0.253 µM): 0.566
relative viability (NCI-H2347; first compound 0.8 µM): 0.658
relative viability (NCI-H2347; first compound 2.53 µM): 0.744
relative viability (LXF-289; first compound 0.08 µM): 0.769
relative viability (LXF-289; first compound 0.253 µM): 0.713
relative viability (LXF-289; first compound 0.8 µM): 0.766
relative viability (LXF-289; first compound 2.53 µM): 0.746
relative viability (PC-3 [JPC-3]; first compound 0.08 µM): 1.19
relative viability (PC-3 [JPC-3]; first compound 0.253 µM): 0.561
relative viability (PC-3 [JPC-3]; first compound 0.8 µM): 0.72
relative viability (PC-3 [JPC-3]; first compound 2.53 µM): 0.867
relative viability (NCI-H2126; first compound 0.08 µM): 0.844
relative viability (NCI-H2126; first compound 0.253 µM): 0.765
relative viability (NCI-H2126; first compound 0.8 µM): 0.651
relative viability (NCI-H2126; first compound 2.53 µM): 0.831
relative viability (LC-2-ad; first compound 0.08 µM): 0.751
relative viability (LC-2-ad; first compound 0.253 µM): 0.723
relative viability (LC-2-ad; first compound 0.8 µM): 0.739
relative viability (LC-2-ad; first compound 2.53 µM): 0.731
relative viability (NCI-H1734; first compound 0.08 µM): 0.842
relative viability (NCI-H1734; first compound 0.253 µM): 0.705
relative viability (NCI-H1734; first compound 0.8 µM): 0.864
relative viability (NCI-H1734; first compound 2.53 µM): 0.912
relative viability (NCI-H358; first compound 0.08 µM): 0.563
relative viability (NCI-H358; first compound 0.253 µM): 0.552
relative viability (NCI-H358; first compound 2.53 µM): 0.751
